Laboratory results reported in ChEMBL document CHEMBL3351515, “α-Hexylcinnamaldehyde inhibits the genotoxicity of environmental pollutants in the bacterial reverse mutation assay” (2014).

Experiments:
[1] = system: Salmonella typhimurium; test: Antimutagenic activity against 2-aminoanthracene-induced revertant colonies in Salmonella typhimurium TA100 assessed as number of revertant colonies measured pretreatment at 180 uM (reference value: 481.3 +/- 5.3) in presence of mammalian S9 fraction; format: functional, Salmonella enterica subsp. enterica serovar Typhimurium
[2] = system: Escherichia coli; test: Antimutagenic activity against methyl methansulfonate-induced revertant colonies in Escherichia coli WP2uvrA assessed as number of revertant colonies measured cotreatment at 180 uM (reference value: 485.3 +/- 17.5) in absence of mammalian S9 fraction; format: functional
[3] = system: Escherichia coli; test: Antimutagenic activity against 2-aminoanthracene-induced revertant colonies in Escherichia coli WP2uvrA assessed as number of revertant colonies measured cotreatment at 180 uM (reference value: 366 +/- 10.3) in presence of mammalian S9 fraction; format: functional
[4] = system: Escherichia coli; test: Antimutagenic activity against methyl methansulfonate-induced revertant colonies in Escherichia coli WP2uvrA assessed as number of revertant colonies measured cotreatment at 900 uM (reference value: 485.3 +/- 17.5) in absence of mammalian S9 fraction; format: functional
[5] = system: Salmonella typhimurium; test: Antimutagenic activity against 4-nitroquinoline N-oxide-induced revertant colonies in Salmonella typhimurium TA98 assessed as inhibition of mutagenicity measured at 9 to 18 uM; format: functional, Salmonella enterica subsp. enterica serovar Typhimurium
[6] = system: Salmonella typhimurium; test: Antimutagenic activity against 1-nitropyrene-induced revertant colonies in Salmonella typhimurium TA98 assessed as inhibition of mutagenicity measured at 900 uM; format: functional, Salmonella enterica subsp. enterica serovar Typhimurium; conditions: Salmonella enterica
[7] = system: Escherichia coli; test: Antimutagenic activity against methyl methansulfonate-induced revertant colonies in Escherichia coli WP2uvrA assessed as number of revertant colonies measured cotreatment at 9 uM (reference value: 485.3 +/- 17.5) in absence of mammalian S9 fraction; format: functional
[8] = system: Salmonella typhimurium; test: Antimutagenic activity against sodium azide-induced revertant colonies in Salmonella typhimurium TA100 assessed as number of revertant colonies measured post-treatment at 18 uM (reference value: 1909 +/- 29.7) in absence of mammalian S9 fraction; format: functional, Salmonella enterica subsp. enterica serovar Typhimurium
[9] = system: Salmonella typhimurium; test: Antimutagenic activity against sodium azide-induced revertant colonies in Salmonella typhimurium TA100 assessed as number of revertant colonies measured cotreatment at 90 uM (reference value: 1588 +/- 55.6) in absence of mammalian S9 fraction; format: functional, Salmonella enterica subsp. enterica serovar Typhimurium
[10] = system: Escherichia coli; test: Antimutagenic activity against methyl methansulfonate-induced revertant colonies in Escherichia coli WP2uvrA assessed as number of revertant colonies measured post-treatment at 900 uM (reference value: 726.7 +/- 12.7) in absence of mammalian S9 fraction; format: functional
[11] = system: Salmonella typhimurium; test: Antimutagenic activity against sodium azide-induced revertant colonies in Salmonella typhimurium TA100 assessed as number of revertant colonies measured post-treatment at 900 uM (reference value: 1909 +/- 29.7) in absence of mammalian S9 fraction; format: functional, Salmonella enterica subsp. enterica serovar Typhimurium
[12] = system: Salmonella typhimurium; test: Antimutagenic activity against 2-aminoanthracene-induced revertant colonies in Salmonella typhimurium TA100 assessed as number of revertant colonies measured post-treatment at 9 uM (reference value: 642.7 +/- 2.7) in presence of mammalian S9 fraction; format: functional, Salmonella enterica subsp. enterica serovar Typhimurium
[13] = system: Salmonella typhimurium; test: Antimutagenic activity against 1-nitropyrene-induced revertant colonies in Salmonella typhimurium TA98 1,8 DNP assessed as inhibition of mutagenicity measured at 9 to 18 uM; format: functional, Salmonella enterica subsp. enterica serovar Typhimurium
[14] = system: Salmonella typhimurium; test: Antimutagenic activity against sodium azide-induced revertant colonies in Salmonella typhimurium TA100 assessed as number of revertant colonies measured post-treatment at 90 uM (reference value: 1909 +/- 29.7) in absence of mammalian S9 fraction; format: functional, Salmonella enterica subsp. enterica serovar Typhimurium
[15] = system: Escherichia coli; test: Antimutagenic activity against 2-aminoanthracene-induced revertant colonies in Escherichia coli WP2uvrA assessed as number of revertant colonies measured post-treatment at 180 uM (reference value: 308 +/- 4) in presence of mammalian S9 fraction; format: functional
[16] = system: Salmonella typhimurium; test: Antimutagenic activity against 2-aminoanthracene-induced revertant colonies in Salmonella typhimurium TA100 assessed as number of revertant colonies measured post-treatment at 18 uM (reference value: 642.7 +/- 2.7) in presence of mammalian S9 fraction; format: functional, Salmonella enterica subsp. enterica serovar Typhimurium
[17] = system: Salmonella typhimurium; test: Antimutagenic activity against sodium azide-induced revertant colonies in Salmonella typhimurium TA100 assessed as number of revertant colonies measured pretreatment at 900 uM (reference value: 1968 +/- 46.9) in absence of mammalian S9 fraction; format: functional, Salmonella enterica subsp. enterica serovar Typhimurium

CCCCCC/C(C=O)=C\c1ccccc1
Activity [1]: 384
Activity [2]: 448
Activity [3]: 318.7
Activity [4]: 402.7
inhibition (INH) [5]: <25%
inhibition at 900 µM [6]: > 40%
Activity [7]: 484
Activity [8]: 1867
Activity [9]: 1477
Activity [10]: 474
Activity [11]: 1671
Activity [12]: 637.3
inhibition (INH) [13]: <25%
Activity [14]: 1803
Activity [15]: 302.7
Activity [16]: 530.7
Activity [17]: 1652
